Laboratory results: ChEMBL document CHEMBL3407349, “The discovery of Polo-like kinase 4 inhibitors: identification of (1R,2S).2-(3-((E).4-(((cis).2,6-dimethylmorpholino)methyl)styryl). 1H.indazol-6-yl)-5'-methoxyspiro[cyclopropane-1,3'-indolin]-2'-one (CFI-400945) as a potent, orally active antitumor agent” (J Med Chem, 2015)

Tests used:
[1] = Half life in beagle dog at 1 mg/kg, iv; type: ADME, organism-based, Canis lupus familiaris; design: dose 1 mg/kg, route intravenous; settings: in vivo
MCF7 = assay: Growth inhibition of human MCF7 cells after 5 days by SRB assay; type: functional; settings: Homo sapiens, MCF7, 120 h
[2] = Half life in dog liver microsomes
[3] = Half life in Sprague-Dawley rat at 1 mg/kg, iv; type: ADME, organism-based; design: dose 1 mg/kg, route intravenous; settings: in vivo
[4] = Oral bioavailability in Sprague-Dawley rat at 5 mg/kg; type: ADME, organism-based; settings: in vivo
[5] = AUC(infinity) in Sprague-Dawley rat at 5 mg/kg, po; type: ADME, organism-based; design: dose 5 mg/kg, route oral, time infinity; settings: plasma
[6] = AUC(infinity) in beagle dog at 5 mg/kg, po; type: ADME, organism-based, Canis lupus familiaris; design: time infinity, dose 5 mg/kg, route oral; settings: plasma
[7] = Oral bioavailability in beagle dog at 5 mg/kg; type: ADME, organism-based, Canis lupus familiaris; settings: in vivo
Rattus norvegicus = assay: Clearance in Sprague-Dawley rat at 1 mg/kg, iv; type: ADME, organism-based; design: dose 1 mg/kg, route intravenous; settings: in vivo
[8] = Half life in rat liver microsomes
[9] = AUC(infinity) in beagle dog at 1 mg/kg, iv; type: ADME, organism-based, Canis lupus familiaris; design: time infinity, dose 1 mg/kg, route intravenous; settings: plasma
Cytochrome P450 2C19 = Cytochrome P450 2C19 (Homo sapiens, UniProt P33261); assay: Inhibition of CYP2C19 (unknown origin) by fluorescence assay
[10] = AUC in athymic CD1 nude mouse at 25 mg/kg, po by LC/MS/MS analysis; type: ADME, organism-based; design: dose 25 mg/kg, route oral; settings: plasma
MDA-MB-468 = assay: Growth inhibition of human MDA-MB-468 cells after 5 days by SRB assay; type: functional; settings: Homo sapiens, MDA-MB-468, 120 h
[11] = Half life in mouse liver microsomes
Cytochrome P450 1A2 = target: T1, Cytochrome P450 1A2 (Homo sapiens, UniProt P05177); assay: Inhibition of CYP1A2 (unknown origin) by fluorescence assay; type: ADME
T1 sequence (P05177 whole entry): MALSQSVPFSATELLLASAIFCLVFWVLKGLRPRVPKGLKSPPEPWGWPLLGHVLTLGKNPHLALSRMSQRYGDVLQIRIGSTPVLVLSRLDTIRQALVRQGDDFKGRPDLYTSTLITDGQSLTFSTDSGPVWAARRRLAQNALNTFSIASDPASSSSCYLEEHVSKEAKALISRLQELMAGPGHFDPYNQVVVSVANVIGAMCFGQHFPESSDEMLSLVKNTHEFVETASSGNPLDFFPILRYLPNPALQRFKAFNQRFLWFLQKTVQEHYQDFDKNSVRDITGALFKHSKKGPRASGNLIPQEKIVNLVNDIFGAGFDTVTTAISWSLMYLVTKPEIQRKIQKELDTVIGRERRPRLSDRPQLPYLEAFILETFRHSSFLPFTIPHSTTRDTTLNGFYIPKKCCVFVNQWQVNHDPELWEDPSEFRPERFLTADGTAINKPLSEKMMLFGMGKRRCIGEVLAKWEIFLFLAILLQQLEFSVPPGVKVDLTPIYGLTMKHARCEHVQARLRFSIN

[12] = Half life in human liver microsomes
[13] = Cmax in athymic CD1 nude mouse at 25 mg/kg, po by LC/MS/MS analysis; type: ADME, organism-based; design: dose 25 mg/kg, route oral; settings: in vivo
MDA-MB-231 = assay: Growth inhibition of human MDA-MB-231 cells after 5 days by SRB assay; type: functional; settings: Homo sapiens, MDA-MB-231, 120 h
Cytochrome P450 2D6 = Cytochrome P450 2D6 (Homo sapiens, UniProt P10635); assay: Inhibition of CYP2D6 (unknown origin) by fluorescence assay; type: ADME
Canis familiaris = assay: Clearance in beagle dog at 1 mg/kg, iv; type: ADME, organism-based, Canis lupus familiaris; design: dose 1 mg/kg, route intravenous; settings: in vivo
[14] = Growth inhibition of human HMEC cells after 5 days by SRB assay; type: cell-based; settings: HMEC cells
[15] = AUC(infinity) in Sprague-Dawley rat at 1 mg/kg, iv; type: ADME, organism-based; design: time infinity, dose 1 mg/kg, route intravenous; settings: plasma
HCC1954 = assay: Growth inhibition of human HCC1954 cells after 5 days by SRB assay; type: functional; settings: Homo sapiens, HCC1954, 120 h
Cytochrome P450 2C9 = Cytochrome P450 2C9 (Homo sapiens, UniProt P11712); assay: Inhibition of CYP2C9 (unknown origin) by fluorescence assay
Cytochrome P450 3A4 [16] = target: T2, Cytochrome P450 3A4 (Homo sapiens, UniProt P08684); assay: Inhibition of CYP3A4 (unknown origin) using BFC as substrate by fluorescence assay
Cytochrome P450 3A4 [17] = target: T2, Cytochrome P450 3A4; assay: Inhibition of CYP3A4 (unknown origin) using DBF as substrate by fluorescence assay
[18] = target: T3, Serine/threonine-protein kinase PLK4 (Homo sapiens, UniProt O00444); assay: Inhibition of PLK4 (unknown origin) by ELISA
T3 sequence (O00444 whole entry): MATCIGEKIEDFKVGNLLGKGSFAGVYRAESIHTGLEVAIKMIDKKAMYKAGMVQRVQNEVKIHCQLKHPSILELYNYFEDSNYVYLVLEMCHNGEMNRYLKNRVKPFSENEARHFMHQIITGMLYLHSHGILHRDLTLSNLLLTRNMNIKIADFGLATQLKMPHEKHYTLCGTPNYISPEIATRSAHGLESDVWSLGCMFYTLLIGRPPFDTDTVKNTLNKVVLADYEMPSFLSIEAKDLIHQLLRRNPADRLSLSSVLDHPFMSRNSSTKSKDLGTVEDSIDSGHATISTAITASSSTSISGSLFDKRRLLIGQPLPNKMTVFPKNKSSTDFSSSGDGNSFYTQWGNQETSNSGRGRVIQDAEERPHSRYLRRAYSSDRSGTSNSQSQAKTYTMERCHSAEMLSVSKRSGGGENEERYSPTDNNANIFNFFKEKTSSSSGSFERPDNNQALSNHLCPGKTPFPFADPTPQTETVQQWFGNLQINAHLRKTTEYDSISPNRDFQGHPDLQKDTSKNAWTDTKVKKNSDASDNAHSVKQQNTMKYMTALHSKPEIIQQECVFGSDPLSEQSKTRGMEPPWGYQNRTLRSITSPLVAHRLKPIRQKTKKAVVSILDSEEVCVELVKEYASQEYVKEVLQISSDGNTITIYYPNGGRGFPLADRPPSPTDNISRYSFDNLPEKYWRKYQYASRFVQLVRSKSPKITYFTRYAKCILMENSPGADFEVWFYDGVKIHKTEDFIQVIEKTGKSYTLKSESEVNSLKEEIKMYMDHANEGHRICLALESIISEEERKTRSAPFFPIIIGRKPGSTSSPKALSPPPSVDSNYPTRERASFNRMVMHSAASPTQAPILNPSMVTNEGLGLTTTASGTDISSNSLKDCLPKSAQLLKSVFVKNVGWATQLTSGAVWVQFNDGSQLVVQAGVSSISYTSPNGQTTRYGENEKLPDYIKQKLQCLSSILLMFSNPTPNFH

T2 sequence (P08684 whole entry): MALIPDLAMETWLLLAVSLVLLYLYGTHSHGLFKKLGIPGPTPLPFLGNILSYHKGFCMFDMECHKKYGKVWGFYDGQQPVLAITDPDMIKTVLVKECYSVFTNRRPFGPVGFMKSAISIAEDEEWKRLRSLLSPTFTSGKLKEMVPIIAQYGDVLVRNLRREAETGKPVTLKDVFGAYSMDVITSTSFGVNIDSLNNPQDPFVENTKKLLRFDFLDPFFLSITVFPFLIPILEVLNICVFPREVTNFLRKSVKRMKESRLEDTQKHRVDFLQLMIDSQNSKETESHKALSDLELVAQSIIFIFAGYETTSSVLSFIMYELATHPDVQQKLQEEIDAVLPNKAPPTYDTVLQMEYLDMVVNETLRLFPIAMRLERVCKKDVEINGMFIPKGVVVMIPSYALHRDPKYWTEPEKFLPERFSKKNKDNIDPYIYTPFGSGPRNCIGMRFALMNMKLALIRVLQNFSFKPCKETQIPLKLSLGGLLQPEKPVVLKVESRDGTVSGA
Cytochrome P450 2D6, sequence (P10635 whole entry): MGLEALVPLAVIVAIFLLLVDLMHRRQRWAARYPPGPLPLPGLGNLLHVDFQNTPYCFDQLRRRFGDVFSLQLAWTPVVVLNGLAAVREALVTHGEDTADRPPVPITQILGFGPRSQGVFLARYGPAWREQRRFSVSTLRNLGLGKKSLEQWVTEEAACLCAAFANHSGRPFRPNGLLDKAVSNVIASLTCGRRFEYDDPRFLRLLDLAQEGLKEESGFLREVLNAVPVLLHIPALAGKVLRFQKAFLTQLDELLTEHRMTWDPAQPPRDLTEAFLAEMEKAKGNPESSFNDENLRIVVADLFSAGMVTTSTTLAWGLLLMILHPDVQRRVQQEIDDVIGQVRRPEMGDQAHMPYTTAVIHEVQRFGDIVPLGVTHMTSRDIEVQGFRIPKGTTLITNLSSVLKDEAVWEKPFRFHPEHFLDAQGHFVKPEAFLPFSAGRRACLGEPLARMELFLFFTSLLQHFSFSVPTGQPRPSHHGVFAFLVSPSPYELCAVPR
Cytochrome P450 2C9, sequence (P11712 whole entry): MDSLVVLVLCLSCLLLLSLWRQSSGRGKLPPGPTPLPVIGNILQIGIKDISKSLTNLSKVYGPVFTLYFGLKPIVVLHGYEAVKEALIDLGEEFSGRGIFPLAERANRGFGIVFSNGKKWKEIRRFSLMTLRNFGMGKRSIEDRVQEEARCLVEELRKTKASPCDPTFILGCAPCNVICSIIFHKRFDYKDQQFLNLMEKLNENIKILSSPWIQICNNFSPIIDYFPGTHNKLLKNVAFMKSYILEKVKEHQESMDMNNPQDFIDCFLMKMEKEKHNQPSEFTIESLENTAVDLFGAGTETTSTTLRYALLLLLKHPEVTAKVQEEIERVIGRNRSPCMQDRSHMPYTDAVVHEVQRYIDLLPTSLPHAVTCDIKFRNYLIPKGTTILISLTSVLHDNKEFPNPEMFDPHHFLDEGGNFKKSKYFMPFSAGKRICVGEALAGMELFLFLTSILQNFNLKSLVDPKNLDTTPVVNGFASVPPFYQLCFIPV
Cytochrome P450 2C19, sequence (P33261 whole entry): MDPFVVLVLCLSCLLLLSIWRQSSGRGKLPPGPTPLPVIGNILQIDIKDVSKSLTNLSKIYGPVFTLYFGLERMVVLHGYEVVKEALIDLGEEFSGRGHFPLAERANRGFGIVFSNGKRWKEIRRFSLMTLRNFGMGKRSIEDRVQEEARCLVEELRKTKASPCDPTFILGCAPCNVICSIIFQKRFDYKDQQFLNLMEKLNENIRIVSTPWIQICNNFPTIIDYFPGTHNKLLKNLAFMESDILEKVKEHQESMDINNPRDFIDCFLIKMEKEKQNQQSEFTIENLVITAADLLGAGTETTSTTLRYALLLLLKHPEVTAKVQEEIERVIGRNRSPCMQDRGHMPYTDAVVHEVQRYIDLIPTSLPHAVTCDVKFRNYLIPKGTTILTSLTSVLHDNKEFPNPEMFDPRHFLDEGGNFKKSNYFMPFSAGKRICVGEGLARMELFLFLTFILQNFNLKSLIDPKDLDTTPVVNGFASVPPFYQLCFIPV

Compound	GI50 (MCF7)	half-life ([2]; liver microsomes)	half-life ([8]; liver microsomes)	IC50 (Cytochrome P450 2C19)	AUC [10]	GI50 (MDA-MB-468)	half-life ([11]; liver microsomes)	inhibition (INH) (Cytochrome P450 1A2)	half-life ([12]; liver microsomes)	Cmax [13]	GI50 (MDA-MB-231)	inhibition (INH) (Cytochrome P450 2D6)	GI50 at 120 h [14]	GI50 (HCC1954)	IC50 (Cytochrome P450 2C9)	IC50 (Cytochrome P450 3A4 [16])	IC50 (Cytochrome P450 3A4 [17])	IC50 [18]	half-life ([11]; microsomes)	half-life ([12]; microsomes)	also measured
Cc1ccc2c(c1)[C@]1(C[C@H]1c1ccc3c(/C=C/c4ccc(CN5CCOCC5)cc4)n[nH]c3c1)C(=O)N2	< 10 nM	9.5 min	9 min	1200 nM	5500 ng·h/mL	13 nM	13 min	Not Active	56 min	2100 ng/mL	22000 nM	Not Active	9300 nM	< 10 nM	1000 nM	–	–	–	–	–	half-life [1]: 420 min; half-life [3]: 96 min; bioavailability [4]: 28%; AUC(0-inf) [5]: 410 ng·h/mL; AUC(0-inf) [6]: 1140 ng·h/mL; bioavailability [7]: 29%; clearance (Rattus norvegicus): 58.3 mL/min/kg; AUC(0-inf) [9]: 795 ng·h/mL; clearance (Canis familiaris): 23.3 mL/min/kg; AUC(0-inf) [15]: 285 ng·h/mL
COc1ccc2c(c1)[C@]1(C[C@H]1c1ccc3c(/C=C/c4ccc(CN5[C@H](C)CN(C)C[C@@H]5C)cc4)n[nH]c3c1)C(=O)N2	2500 nM	39 min	49 min	810 nM	2200 ng·h/mL	10 nM	38 min	Not Active	> 60 min	1300 ng/mL	2200 nM	Not Active	–	2300 nM	560 nM	10000 nM	1600 nM	0.39 nM	–	–	–
CC(C)N1CCC(Oc2ccc(/C=C/c3n[nH]c4cc([C@@H]5C[C@@]56C(=O)Nc5ccccc56)ccc34)cc2)CC1	67 nM	> 60 min	> 60 min	1900 nM	1400 ng·h/mL	5 nM	30 min	Not Active	> 60 min	510 ng/mL	1600 nM	Not Active	4100 nM	7 nM	2400 nM	> 1000 nM	1600 nM	1.5 nM	–	–	–
COc1ccc2c(c1)[C@]1(C[C@H]1c1ccc3c(/C=C/c4ccc(CN5C[C@@H](C)O[C@@H](C)C5)cc4)n[nH]c3c1)C(=O)N2C	21 nM	–	–	760 nM	6800 ng·h/mL	29 nM	–	Not Active	–	3400 ng/mL	50000 nM	Not Active	> 30000 nM	15 nM	440 nM	10000 nM	> 1000 nM	5.7 nM	10 min	> 60 min	half-life ([2]; microsomes): > 60 min; half-life ([8]; microsomes): 18 min
COc1ccc2c(c1)[C@]1(C[C@H]1c1ccc3c(/C=C/c4ccc([C@H](C)N5CCOCC5)cc4)n[nH]c3c1)C(=O)N2C	50 nM	–	–	900 nM	16000 ng·h/mL	10 nM	–	Not Active	–	3300 ng/mL	1000 nM	Not Active	9600 nM	10 nM	440 nM	450 nM	11000 nM	1.5 nM	7.2 min	53 min	half-life ([2]; microsomes): 6.8 min; half-life ([8]; microsomes): 10 min
O=C1Nc2ccccc2[C@]12C[C@H]2c1ccc2c(/C=C/c3ccc(N4CCNCC4)cc3)n[nH]c2c1	20 nM	–	–	900 nM	340 ng·h/mL	2 nM	–	Not Active	–	120 ng/mL	23 nM	Not Active	21000 nM	260 nM	1700 nM	–	2800 nM	0.9 nM	19 min	46 min	–
CN1CCN(c2ccc(/C=C/c3n[nH]c4cc([C@@H]5C[C@@]56C(=O)N(C)c5ccccc56)ccc34)cn2)CC1	20 nM	–	–	1200 nM	1600 ng·h/mL	1 nM	7 min	Not Active	27 min	700 ng/mL	600 nM	Not Active	–	5 nM	3800 nM	300 nM	2900 nM	1.3 nM	–	–	–
